Assay in all cases: In vitro competitive activity-based protein profiling (gel-based, FP-Rh or HT-01 probe)
What all share (type): biochemical

The target of one assay is T1, FAAH (Mus musculus, UniProt O08914).
T1 construct: Proteomes (mouse brain membrane fraction or cell lysates); from tissue; host or cells: mouse brain membrane fraction (or cell lysates, not specified)
T1 sequence (O08914 1-579): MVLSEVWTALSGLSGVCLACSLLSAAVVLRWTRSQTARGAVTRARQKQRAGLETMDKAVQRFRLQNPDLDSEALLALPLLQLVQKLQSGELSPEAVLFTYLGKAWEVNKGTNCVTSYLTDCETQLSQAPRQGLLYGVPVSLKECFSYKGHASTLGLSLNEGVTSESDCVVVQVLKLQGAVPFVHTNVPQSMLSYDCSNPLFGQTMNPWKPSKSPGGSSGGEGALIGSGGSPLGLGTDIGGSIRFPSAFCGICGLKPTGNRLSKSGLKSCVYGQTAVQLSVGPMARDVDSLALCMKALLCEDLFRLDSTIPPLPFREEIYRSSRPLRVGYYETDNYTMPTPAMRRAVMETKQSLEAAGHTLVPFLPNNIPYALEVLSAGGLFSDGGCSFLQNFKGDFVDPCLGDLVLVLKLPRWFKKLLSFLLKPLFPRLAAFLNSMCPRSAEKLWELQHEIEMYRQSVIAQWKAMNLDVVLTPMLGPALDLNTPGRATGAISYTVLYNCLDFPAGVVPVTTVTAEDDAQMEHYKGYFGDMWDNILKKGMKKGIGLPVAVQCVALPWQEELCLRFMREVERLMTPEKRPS
The settings on record: for inhibition at 1 µM: 1 μM inhibitor, read-out: % Inhibition at 1 μM, B = FAAH; for inhibition at 10 µM: 10 μM inhibitor, read-out: % Inhibition at 10 μM, B = FAAH. In a few lines:
(§1)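 Gel-based read-out: fluorescent band intensity after SDS-PAGE reflected remaining hydrolase activity. Inhibitors were preincubated 30 min at 37° C with 1.0 mg/mL mouse brain membrane or lysate proteome before a further 30 min at 37° C with FP-Rh or HT-01 probe.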

The next assay addresses T2, PLA2G7 (Mus musculus, UniProt Q60963).
T2 construct: Proteomes (mouse brain membrane fraction or cell lysates); from tissue; host or cells: mouse brain membrane fraction (or cell lysates, not specified)
T2 sequence (Q60963 22-440): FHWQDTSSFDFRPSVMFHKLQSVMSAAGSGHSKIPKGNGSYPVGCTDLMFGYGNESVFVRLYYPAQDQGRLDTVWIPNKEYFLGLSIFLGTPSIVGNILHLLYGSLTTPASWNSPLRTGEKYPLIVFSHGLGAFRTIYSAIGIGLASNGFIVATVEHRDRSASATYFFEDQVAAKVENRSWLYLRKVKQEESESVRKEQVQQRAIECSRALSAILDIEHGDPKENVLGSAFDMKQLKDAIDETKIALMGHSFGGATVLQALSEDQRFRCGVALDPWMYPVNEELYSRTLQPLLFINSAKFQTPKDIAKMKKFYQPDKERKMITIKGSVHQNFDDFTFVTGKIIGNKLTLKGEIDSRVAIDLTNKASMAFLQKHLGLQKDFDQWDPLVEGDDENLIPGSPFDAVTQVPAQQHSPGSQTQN
The settings on record: for inhibition at 1 µM: 1 μM inhibitor, read-out: % Inhibition at 1 μM, D = PLA2G7; for inhibition at 10 µM: 10 μM inhibitor, read-out: % Inhibition at 10 μM, D = PLA2G7. The procedure, abridged:
as §1

The target in the next assay is T3, ABHD6 (Mus musculus, UniProt Q8R2Y0).
T3 construct: Proteomes (mouse brain membrane fraction or cell lysates); from tissue; host or cells: mouse brain membrane fraction (or cell lysates, not specified)
T3 sequence (Q8R2Y0 1-336): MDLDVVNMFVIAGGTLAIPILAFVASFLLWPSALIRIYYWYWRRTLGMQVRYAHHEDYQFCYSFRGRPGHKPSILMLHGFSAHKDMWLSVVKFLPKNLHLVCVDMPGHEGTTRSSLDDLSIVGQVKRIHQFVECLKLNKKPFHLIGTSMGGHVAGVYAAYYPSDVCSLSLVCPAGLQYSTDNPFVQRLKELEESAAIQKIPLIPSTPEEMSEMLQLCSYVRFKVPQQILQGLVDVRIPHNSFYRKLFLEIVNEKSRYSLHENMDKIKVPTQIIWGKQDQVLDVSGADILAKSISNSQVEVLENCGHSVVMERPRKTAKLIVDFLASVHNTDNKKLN
The settings on record: for inhibition at 1 µM: 1 μM inhibitor, read-out: % Inhibition at 1 μM, C = ABHD6; for inhibition at 10 µM: 10 μM inhibitor, read-out: % Inhibition at 10 μM, C = ABHD6; for IC50: mouse brain membrane fraction or cell lysates, 30 min preincubation at 37° C., read-out: Mouse (IC50 value, nM) ABHD6. The procedure, abridged:
as §1

Another assay deals with T4, MAGL (Mus musculus, UniProt O35678).
T4 construct: Proteomes (mouse brain membrane fraction or cell lysates); from tissue; host or cells: mouse brain membrane fraction (or cell lysates, not specified)
T4 sequence (O35678 1-303): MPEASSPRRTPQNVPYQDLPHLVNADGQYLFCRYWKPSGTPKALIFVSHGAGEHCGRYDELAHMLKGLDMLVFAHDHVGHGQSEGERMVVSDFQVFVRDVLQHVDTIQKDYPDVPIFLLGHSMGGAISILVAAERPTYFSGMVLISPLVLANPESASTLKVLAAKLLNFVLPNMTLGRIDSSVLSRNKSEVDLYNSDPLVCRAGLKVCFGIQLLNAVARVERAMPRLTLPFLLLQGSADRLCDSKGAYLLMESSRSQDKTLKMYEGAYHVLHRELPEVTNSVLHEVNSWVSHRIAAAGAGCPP
The settings on record: for inhibition at 1 µM: 1 μM inhibitor; for inhibition at 10 µM: 10 μM inhibitor. In a few lines: as §1

Each structure is given as a SMILES string.

One may read the inhibition as the drop in the measured response relative to a control, in per cent. The IC50 is the concentration that gives 50% inhibition.

Consider `O=C(Nc1ccc2ccccc2c1)n1cccn1` [Example 40, N-(Naphthalen-2-yl)-1H-pyrazole-1-carboxamide], for which the inhibition at 1 µM at FAAH, on PLA2G7, at ABHD6 and at MAGL was under 25% in each case. Further, the inhibition at 10 µM on FAAH was under 25%; at PLA2G7, under 25%; at ABHD6, under 25%; at MAGL, over 75%.
Regarding `Cc1cnn(C(=O)Nc2ccc3ccccc3c2)c1` [Example 41, 4-Methyl-N-(naphthalen-2-yl)-1H-pyrazole-1-carboxamide], the inhibition at 1 µM on FAAH, at PLA2G7, at ABHD6 and on MAGL was under 25% each time. Also, the inhibition at 10 µM at FAAH is under 25%; on PLA2G7, under 25%; at ABHD6, under 25%; at MAGL it was over 75%.
For `N#Cc1cnn(C(=O)Nc2ccc3ccccc3c2)c1` [Example 42, 4-Cyano-N-(naphthalen-2-yl)-1H-pyrazole-1-carboxamide], the inhibition at 1 µM at FAAH, at PLA2G7, at ABHD6 and at MAGL was under 25% in each case. Besides, the inhibition at 10 µM was under 25% on FAAH, under 25% on PLA2G7, under 25% on ABHD6 and over 75% at MAGL.
On to `O=C(NCc1ccc2ccccc2c1)n1cccn1` [Example 43, N-(Naphthalen-2-ylmethyl)-1H-pyrazole-1-carboxamide], for which the inhibition at 1 µM on FAAH, on PLA2G7, on ABHD6 and at MAGL was under 25% in each case. In addition, the inhibition at 10 µM at FAAH was over 75%; on PLA2G7, under 25%; at ABHD6, under 25%; on MAGL, 25 to 75%.
On to `N#Cc1cnn(C(=O)NCc2ccc3ccccc3c2)c1` [Example 45, 4-Cyano-N-(naphthalen-2-ylmethyl)-1H-pyrazole-1-carboxamide], for which the inhibition at 1 µM at FAAH, on PLA2G7, at ABHD6 and at MAGL was under 25% in each case. Further, the inhibition at 10 µM was over 75% on FAAH, under 25% on PLA2G7, under 25% on ABHD6 and 25 to 75% on MAGL.
`O=C(c1cnn(C(=O)N2CCN(Cc3ccc4c(c3)OCO4)CC2)c1)N1CCOCC1` [Example 51, (4-(Benzo[d][1,3]dioxol-5-ylmethyl)piperazin-1-yl)(4-(morpholine-4-carbonyl)-1H-pyrazol-1-yl)methanone]: the inhibition at 1 µM was under 25% on FAAH, under 25% at PLA2G7, over 75% at ABHD6 and under 25% at MAGL. The inhibition at 10 µM at FAAH, on PLA2G7, on ABHD6 and on MAGL was over 75% each time. Further, at ABHD6, the IC50 lay within 100 to 1000 nM.
For `O=C(c1cnn(C(=O)N2CCN(Cc3ccncc3)CC2)c1)N1CCOCC1` [Example 52, (4-(Morpholine-4-carbonyl)-1H-pyrazol-1-yl)(4-(pyridin-4-ylmethyl)piperazin-1-yl)methanone], the inhibition at 10 µM on FAAH was under 25%; at PLA2G7, over 75%; on ABHD6, over 75%; at MAGL, under 25%. The inhibition at 1 µM is under 25% on PLA2G7 and 25 to 75% at ABHD6.
As to `O=C(c1cnn(C(=O)N2CCN(Cc3cccnc3)CC2)c1)N1CCOCC1` [Example 53, (4-(Morpholine-4-carbonyl)-1H-pyrazol-1-yl)(4-(pyridin-3-ylmethyl)piperazin-1-yl)methanone], the inhibition at 10 µM at FAAH is under 25%; at PLA2G7, over 75%; on ABHD6 it was over 75%; on MAGL it was 25 to 75%. Also, the inhibition at 1 µM on PLA2G7 and at ABHD6 was under 25% in each case.
For the molecule `O=C(c1cnn(C(=O)N2CCN(Cc3ccncn3)CC2)c1)N1CCOCC1` [Example 54, (4-(Morpholine-4-carbonyl)-1H-pyrazol-1-yl)(4-(pyrimidin-4-ylmethyl)piperazin-1-yl)methanone], the inhibition at 10 µM on FAAH is under 25%; at PLA2G7, over 75%; on ABHD6, 25 to 75%; at MAGL, 25 to 75%. For the same molecule, the inhibition at 1 µM at PLA2G7 and on ABHD6 was under 25% each time.
Turning to `O=C(c1cnn(C(=O)N2CCN(Cc3nccs3)CC2)c1)N1CCOCC1` [Example 55, (4-(Morpholine-4-carbonyl)-1H-pyrazol-1-yl)(4-(thiazol-2-ylmethyl)piperazin-1-yl)methanone], the inhibition at 10 µM on FAAH is 25 to 75%; on PLA2G7, over 75%; on ABHD6, over 75%; on MAGL, under 25%. The figures for the inhibition at 1 µM at PLA2G7 and on ABHD6 were under 25% and 25 to 75%, respectively.
For the molecule `O=C(c1cnn(C(=O)N2CCN(Cc3cncnc3)CC2)c1)N1CCOCC1` [Example 56, (4-(Morpholine-4-carbonyl)-1H-pyrazol-1-yl)(4-(pyrimidin-5-ylmethyl)piperazin-1-yl)methanone], the inhibition at 10 µM at FAAH was under 25%; on PLA2G7, over 75%; at ABHD6, over 75%; on MAGL, under 25%. In addition, the inhibition at 1 µM at PLA2G7 and on ABHD6 was under 25% each time.
Regarding `Cc1cc(-c2ccccc2)ccc1CN1CCN(C(=O)n2cc(C(=O)N3CCOCC3)cn2)CC1` [Example 57, (4-((3-Methyl-[1,1′-biphenyl]-4-yl)methyl)piperazin-1-yl)(4-(morpholine-4-carbonyl)-1H-pyrazol-1-yl)methanone], the inhibition at 1 µM is over 75% on FAAH, under 25% on PLA2G7, over 75% on ABHD6 and over 75% on MAGL. Besides, the inhibition at 10 µM on FAAH, at PLA2G7, at ABHD6 and on MAGL was over 75% throughout. Besides, the concentration for half-maximal inhibition (IC50) on FAAH (mouse brain membrane fraction or cell lysates, 30 min preincubation at 37° C., read-out: Mouse (IC50 value, nM) FAAH) is under 100 nM; at ABHD6 it was 100 to 1000 nM; at MAGL (mouse brain membrane fraction or cell lysates, 30 min preincubation at 37° C., read-out: Mouse (IC50 value, nM) MAGL), 100 to 1000 nM.
